Test results from patent US20240158446A1, “CYCLIC COMPOUND HAVING SELECTIVE INHIBITORY ACTION ON KRAS OVER HRAS AND NRAS” (CHUGAI SEIYAKU KABUSHIKI KAISHA, priority 2021, published 2024).
pIC50, pKd: −log10 of the molar value. Where two headings read alike, the source gives them in different places.

Columns and labels:
[1] = target: GDP-bound NRAS wild-type protein (Homo sapiens, UniProt P01111); test: Binding to NRAS by surface plasmon resonance (SPR), Single Cycle Kinetics; conditions: for NRAS/KRAS (ratio of KD value for NRAS to KD value for KRAS): GDP-bound NRAS wild-type protein vs GDP-bound KRAS wild-type protein; for NRAS/KRAS (ratio of KD value with respect to GDP-bound NRAS wild-type protein to KD value with respect to KRAS): SPR KD ratio NRAS/KRAS, class symbols
Sequence of GDP-bound NRAS wild-type protein (P01111 whole entry): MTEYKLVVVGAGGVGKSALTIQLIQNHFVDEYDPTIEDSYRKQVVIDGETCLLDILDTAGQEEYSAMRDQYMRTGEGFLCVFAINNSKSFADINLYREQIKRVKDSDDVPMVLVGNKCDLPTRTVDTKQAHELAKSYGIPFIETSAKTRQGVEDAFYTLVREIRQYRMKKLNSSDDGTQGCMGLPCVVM

[2] = target: GDP-bound KRAS wild-type protein (Homo sapiens, UniProt P01116); test: Binding to KRAS by surface plasmon resonance (SPR), Single Cycle Kinetics
Sequence of GDP-bound KRAS wild-type protein (P01116 whole entry): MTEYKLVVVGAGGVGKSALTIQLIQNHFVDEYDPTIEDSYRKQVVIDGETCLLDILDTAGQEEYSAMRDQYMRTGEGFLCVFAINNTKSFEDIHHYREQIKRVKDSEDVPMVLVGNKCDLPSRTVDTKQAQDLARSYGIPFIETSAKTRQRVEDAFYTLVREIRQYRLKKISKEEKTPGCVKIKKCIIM

[3] = target: GDP-bound HRAS wild-type protein (Homo sapiens, UniProt P01112); test: Binding to HRAS by surface plasmon resonance (SPR), Single Cycle Kinetics; conditions: for HRAS/KRAS (ratio of KD value for HRAS to KD value for KRAS): GDP-bound HRAS wild-type protein vs GDP-bound KRAS wild-type protein; for HRAS/KRAS (ratio of KD value with respect to GDP-bound HRAS wild-type protein to KD value with respect to KRAS): SPR KD ratio HRAS/KRAS, class symbols
Sequence of GDP-bound HRAS wild-type protein (P01112 whole entry): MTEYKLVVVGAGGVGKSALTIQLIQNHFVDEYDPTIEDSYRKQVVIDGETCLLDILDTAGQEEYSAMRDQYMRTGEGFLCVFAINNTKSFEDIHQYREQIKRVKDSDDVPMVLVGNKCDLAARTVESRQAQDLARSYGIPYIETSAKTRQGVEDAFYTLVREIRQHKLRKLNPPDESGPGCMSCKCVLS

[4] = system: human lung cancer strain NCI-H441;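 note: cell proliferation inhibition after four days measured by CellTiter-Glo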
[5] = SPR, Single Cycle Kinetics, GDP-bound KRAS wild-type protein, read-out: KRAS KD
[6] = SPR, Single Cycle Kinetics, 1:1 binding model, GDP-bound KRAS wild-type protein, read-out: KRAS KD
[7] = SPR Single Cycle Kinetics, GDP-bound KRAS wild-type protein, 1:1 binding model, read-out: KRAS KD

SMILES | NRAS/KRAS (ratio of KD value for NRAS to KD value for KRAS) ([1]; SPR) | pKd [2, 5] | HRAS/KRAS (ratio of KD value for HRAS to KD value for KRAS) ([3]; SPR) | pIC50 [4] | NRAS/KRAS (ratio of KD value for NRAS to KD value for KRAS) ([1]; SPR, KD ratio class) | pKd [2, 6] | HRAS/KRAS (ratio of KD value for HRAS to KD value for KRAS) ([3]; SPR, KD ratio class) | also measured
CCO[C@@H]1C[C@H]2C(=O)NC3(CC(C)(C)C3)C(=O)N(C)[C@@H](C3CCCC3)C(=O)N(C)[C@H](C(=O)N3CCCCC3)CC(=O)N(C)[C@H]3CCCCc4ccc(cc4)C[C@@H](C(=O)N(C)CC(=O)N[C@@H](CCc4ccc(C(F)(F)F)c(OC)c4)C(=O)N2C1)N1CC/C=C\C[C@@H](C1=O)N(C)C(=O)CN(C)C(=O)[C@H]([C@@H](C)CC)NC3=O [PP3093, (1S,7S,11R,13S,19S,22S,26S,29S,35S,37Z)-19-cyclopentyl-11-ethoxy-7-[2-[3-methoxy-4-(trifluoromethyl)phenyl]ethyl]-3,3′,3′,18,21,25,31,34-octamethyl-29-[(1S)-1-methylpropyl]-22-(piperidine-1-carbonyl)spiro[3,6,9,15,18,21,25,28,31,34,41-undecazapentacyclo[24.15.9.2^43,46.1^35,41.0^9,13]tripentaconta-37,43(52),44,46(51)-tetraene-16,1′-cyclobutane]-2,5,8,14,17,20,24,27,30,33,53-undecone] | A (a compound having 10 or more and less than 20 is denoted as A) | 10.01 | A (a compound having 10 or more and less than 20 is denoted as A) |  |  |  |  | ratio of the KD value with respect to GDP-bound NRAS wild-type protein to the KD value with respect to KRAS ([1]; SPR, KD(NRAS)/KD(KRAS)): A (a compound having 10 or more and less than 20 is denoted as A); pKd ([2]; SPR, Single Cycle Kinetics, 1:1 binding model, read-out: KD value with respect to GDP-bound KRAS wild-type protein): 10.01; ratio of the KD value with respect to GDP-bound HRAS wild-type protein to the KD value with respect to KRAS ([3]; SPR, KD(HRAS)/KD(KRAS)): A (a compound having 10 or more and less than 20 is denoted as A); pIC50 ([4]; read-out: NCI-H441 cell proliferation inhibitory activity, 50% proliferation inhibitory concentration (IC50 value), NCI-H441, four days, CellTiter-Glo): 8.49
CC[C@H](C)[C@@H]1NC(=O)[C@H](COC)N(C)C(=O)C[C@@H](C(=O)N(C)CC)N(C)C(=O)[C@H](C2CCCC2)N(C)C(=O)C2(CC(C)(C)C2)NC(=O)[C@@H]2C[C@H](C)CN2C(=O)[C@H](CCc2cc(F)c(C(F)(F)F)c(F)c2)NC(=O)CN(C)C(=O)[C@H](Cc2ccc(C)cc2)N2CC/C=C\C[C@@H](C2=O)N(C)C(=O)CN(C)C1=O [PP2437] | A (a compound having 10 or more and less than 20 is denoted as A) | 9.92 | A (a compound having 10 or more and less than 20 is denoted as A) | 7.73 |  |  |  | 
CCO[C@@H]1C[C@H]2C(=O)NC3(CCC3)C(=O)N(C)[C@@H](C3CCCC3)C(=O)N(C)[C@H](C(=O)N(C)C)CC(=O)N(C)[C@@H](CC3CC3)C(=O)N[C@@H]([C@@H](C)CC)C(=O)NCC(=O)N(C)[C@H]3C/C=C\CCN(C3=O)[C@@H](Cc3ccc(C(F)(F)F)cc3)C(=O)N(C)CC(=O)N[C@@H](CCc3cc(F)c(C(F)(F)F)c(F)c3)C(=O)N2C1 [PP1406, (2S,8S,12R,14S,20S,23S,27S,30S,36S,38Z)-20-cyclopentyl-27-(cyclopropylmethyl)-8-[2-[3,5-difluoro-4-(trifluoromethyl)phenyl]ethyl]-12-ethoxy-N,N,4,19,22,26,35-heptamethyl-30-[(1S)-1-methylpropyl]-3,6,9,15,18,21,25,28,31,34,42-undecaoxo-2-[[4-(trifluoromethyl)phenyl]methyl]spiro[1,4,7,10,16,19,22,26,29,32,35-undecazatricyclo[34.5.1.0^10,14]dotetracont-38-ene-17,1′-cyclobutane]-23-carboxamide] |  |  |  | 7.96 | A (a compound having 10 or more and less than 20 is denoted as A) | 10.14 | B (a compound having 3 or more and less than 10 is denoted as B) | 
CCC(CC)[C@H]1C(=O)N(C)[C@H](C(=O)N(C)C)CC(=O)N(C)[C@@H](COC)C(=O)N[C@@H]([C@@H](C)CC)C(=O)N(C2CC2)CC(=O)N(C)[C@H]2C/C=C\CCN(C2=O)[C@@H](Cc2ccc(C(F)F)cc2)C(=O)N(C)CC(=O)N[C@@H](CCc2cc(F)c(C(F)(F)F)c(F)c2)C(=O)N2C[C@H](OC3CCC3)C[C@H]2C(=O)NC2(CC(C)(C)C2)C(=O)N1C [PP2631] |  |  |  | 7.24 |  |  |  | NRAS/KRAS (ratio of KD value with respect to GDP-bound NRAS wild-type protein to KD value with respect to KRAS) [1]: AA (a compound having 20 or more is denoted as AA); pKd [2, 7]: 9.30; HRAS/KRAS (ratio of KD value with respect to GDP-bound HRAS wild-type protein to KD value with respect to KRAS) [3]: A (a compound having 10 or more and less than 20 is denoted as A)
CCO[C@@H]1C[C@H]2C(=O)NC3(CC(C)(C)C3)C(=O)N(C)[C@@H](C3CCCC3)C(=O)N(C)[C@H](C(C)C)CC(=O)N(C)[C@@H](CC)C(=O)N[C@@H]([C@@H](C)CC)C(=O)N(C)CC(=O)N(C)[C@H]3C/C=C\CCN(C3=O)[C@@H](Cc3ccc(C(F)(F)F)cc3)C(=O)N(C)CC(=O)N[C@@H](CCc3cc(F)c(C(F)(F)F)c(F)c3)C(=O)N2C1 [PP1588] |  |  |  | 7.62 | B (a compound having 3 or more and less than 10 is denoted as B) | 9.22 | B (a compound having 3 or more and less than 10 is denoted as B) | 
CCO[C@@H]1C[C@H]2C(=O)NC3(CCC3)C(=O)N(C)[C@@H](C3CCCC3)C(=O)N(C)[C@H](C(=O)N(C)C)CC(=O)N(C)[C@@H](Cc3ccc(C#N)cc3)C(=O)N[C@@H]([C@@H](C)CC)C(=O)N(C)CC(=O)N(C)[C@H]3CCCCCN(C3=O)[C@@H](Cc3ccc(F)cc3)C(=O)N(C)CC(=O)N[C@@H](CCc3cc(F)c(C(F)(F)F)c(F)c3)C(=O)N2C1 [PP1157] | B (a compound having 3 or more and less than 10 is denoted as B) | 10.21 | B (a compound having 3 or more and less than 10 is denoted as B) | 7.52 |  |  |  | 
CCC[C@H]1C(=O)N[C@@H]([C@@H](C)CC)C(=O)N(C)CC(=O)N(C)[C@H]2C/C=C\CCN(C2=O)[C@@H](Cc2ccc(C)cc2)C(=O)N(C)CC(=O)N[C@@H](CCc2cc(F)c(C(F)(F)F)c(F)c2)C(=O)N2C[C@H](OCC)C[C@H]2C(=O)NC2(CC(C)(C)C2)C(=O)N(C)[C@@H](CC2CCC2)C(=O)N(C)[C@H](C(=O)N(C)C)CC(=O)N1C [PP2751] |  |  |  | 7.41 |  |  |  | NRAS/KRAS (ratio of KD value with respect to GDP-bound NRAS wild-type protein to KD value with respect to KRAS) [1]: A (a compound having 10 or more and less than 20 is denoted as A); pKd [2, 7]: 9.07; HRAS/KRAS (ratio of KD value with respect to GDP-bound HRAS wild-type protein to KD value with respect to KRAS) [3]: A (a compound having 10 or more and less than 20 is denoted as A)
CC[C@H](C)[C@@H]1NC(=O)[C@H](CC(C)C)N(C)C(=O)C[C@@H](C(=O)N2CCOCC2)N(C)C(=O)[C@H](C2CCCC2)N(C)C(=O)C2(CCC2)NC(=O)[C@@H]2C[C@@H](OCC(C)C)CN2C(=O)[C@H](CCc2cc(F)c(C(F)(F)F)c(F)c2)NC(=O)CN(C)C(=O)[C@H](Cc2ccc(C(F)(F)F)cc2)N2CCCC[C@@H](C2=O)N(C)C(=O)CN(C)C1=O [PP1160] | B (a compound having 3 or more and less than 10 is denoted as B) | 10.49 | B (a compound having 3 or more and less than 10 is denoted as B) | 7.74 |  |  |  | 
CC[C@H](C)[C@@H]1NC(=O)[C@H](CC)N(C)C(=O)C[C@@H](C(=O)N(C)C)N(C)C(=O)[C@H](C2CCCC2)N(C)C(=O)C2(CCC2)NC(=O)[C@@H]2C[C@@H](C(F)(F)F)CN2C(=O)[C@H](CCc2cc(F)c(C(F)(F)F)c(F)c2)NC(=O)CN(C)C(=O)[C@H](CC2CCC(F)(F)CC2)N2CC/C=C\C[C@@H](C2=O)N(C)C(=O)CN(C)C1=O [PP1451, (2S,8S,12R,14S,20S,23S,27S,30S,36S,38Z)-20-cyclopentyl-2-[(4,4-difluorocyclohexyl)methyl]-8-[2-[3,5-difluoro-4-(trifluoromethyl)phenyl]ethyl]-27-ethyl-N,N,4,19,22,26,32,35-octamethyl-30-[(1S)-1-methylpropyl]-3,6,9,15,18,21,25,28,31,34,42-undecaoxo-12-(trifluoromethyl)spiro[1,4,7,10,16,19,22,26,29,32,35-undecazatricyclo[34.5.1.0^10,14]dotetracont-38-ene-17,1′-cyclobutane]-23-carboxamide] |  |  |  | 7.21 | A (a compound having 10 or more and less than 20 is denoted as A) | 9.85 | A (a compound having 10 or more and less than 20 is denoted as A) | 
CCO[C@@H]1C[C@H]2C(=O)NC3(CCC3)C(=O)N(C)[C@@H](C(CC)CC)C(=O)N(C)[C@H](C(=O)N(C)C)CC(=O)N(C)[C@@H](CC(C)C)C(=O)N[C@@H]([C@@H](C)CC)C(=O)N(C)CC(=O)N(C)[C@H]3C/C=C\CCN(C3=O)[C@@H](Cc3ccc(C(F)(F)F)cc3)C(=O)N(C)CC(=O)N[C@@H](CCc3cc(F)c(C(F)(F)F)c(F)c3)C(=O)N2C1 [PP1201] | AA (a compound having 20 or more is denoted as AA) | 9.77 | A (a compound having 10 or more and less than 20 is denoted as A) | 8.01 |  |  |  | 
